Source: PMC4346889, “Discovery of Akt Kinase Inhibitors through Structure-Based Virtual Screening and Their Evaluation as Potential Anticancer Agents” (International Journal of Molecular Sciences, 2015)

Tests used:
[1] = tested on: HEK-293 normal human embryonic kidney cells; assay: Cytotoxicity evaluation, ATPLite cell viability; format: cell-based; details: HEK293, 48 h, concentration required to inhibit cell growth by 50%, 2 days incubation
Protocol: (§1) The 26 test compounds (as listed in Figure 4) were further evaluated at 100 µM for their cytotoxicity against HCT-116 human colon cancer cells and HEK-293 normal human embryonic kidney cells. […] Their chemical structures are shown in Figure S1 in the Supplementary Material.
(§2) Compounds were evaluated at 100 µM for their cytotoxicity against HCT-116 human colon cancer cells and HEK-293 normal human embryonic kidney cells. Cells were seeded at a density of 1 × 10^4 cells/well in 96-well plates and allowed to attach overnight. Cells were then treated with test compounds or 1% DMSO (vehicle control) and incubated at 37 °C in an atmosphere of 5% CO2 for 2 days. The ATPLite kit (PerkinElmer, Waltham, MA, USA) was used for detecting the cell viability.

[2] = tested on: HCT-116 human colon cancer cells; assay: Cytotoxicity evaluation, ATPLite cell viability; format: cell-based; details: for IC50: Homo sapiens, HCT-116, 48 h, concentration required to inhibit cell growth by 50%, 2 days incubation; for Selectivity index: ratio of IC50 for HEK-293/IC50 for HCT-116
[3] = target: T1, Akt kinase (Homo sapiens, UniProt P31749); assay: Akt kinase inhibition assay (EKS-400A assay kit); format: biochemical
T1 construct: purchased Enzo Life Sciences EKS-400A
T1 sequence (P31749 whole entry): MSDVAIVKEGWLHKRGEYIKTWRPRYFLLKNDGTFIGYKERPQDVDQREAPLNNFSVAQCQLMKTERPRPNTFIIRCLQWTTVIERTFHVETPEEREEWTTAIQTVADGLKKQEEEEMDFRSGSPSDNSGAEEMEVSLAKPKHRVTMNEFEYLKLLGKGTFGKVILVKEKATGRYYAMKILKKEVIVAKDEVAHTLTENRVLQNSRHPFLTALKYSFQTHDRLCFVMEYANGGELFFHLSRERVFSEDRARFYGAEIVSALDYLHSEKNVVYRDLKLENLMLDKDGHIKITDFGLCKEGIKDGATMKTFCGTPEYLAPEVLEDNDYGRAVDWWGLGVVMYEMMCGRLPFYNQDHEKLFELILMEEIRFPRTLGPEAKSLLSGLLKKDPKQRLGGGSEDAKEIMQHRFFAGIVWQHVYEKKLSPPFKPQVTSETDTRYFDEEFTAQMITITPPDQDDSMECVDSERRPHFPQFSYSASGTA
Protocol: The 48 selected compounds from virtual screening were assessed at 100 µM for their ability to inhibit Akt kinase activity using the EKS-400A assay kit (Enzo Life Sciences, Farmingdale, NY, USA).
Compounds were evaluated at 100 µM for their ability to inhibit Akt kinase activity using the EKS-400A assay kit (Enzo Life Sciences). Test compounds or 1% DMSO (vehicle control) were incubated with the 8 ng pure Akt kinase in Hanks’ Balanced Salt Solution (HBSS) at 37 °C for 30 min.

[4] = target: T1, Akt kinase; details: cited from earlier work
[5] = tested on: HCT-116 human colon cancer cells; assay: Cytotoxicity evaluation, ATPLite cell viability; format: cell-based; details: at 100 µM, compared with reference H-89
Protocol: as §1, §2

Row | SMILES | IC50 [1] [µM] | IC50 [2] [µM] | Selectivity index [2] | IC50 [3] [µM] | inhibition at 100 µM ([3]; at 100 µM) [%] | remaining activity at 100 µM ([3]; compound at 100 µM, read-out: Akt kinase residual activity) [%] | pan-Akt kinase inhibitor activity [4] | cytotoxic activity against HCT-116 compared to H-89 [5]
1 | O=S(=O)(NCCNC/C=C/c1ccc(Br)cc1)c1cccc2cnccc12 [Compound H-89, H-89, reference compound] | 112 | 78.9 |  |  |  |  |  | 
2 | Cc1nn(C)cc1-c1nnc(SCC(=O)Nc2cc(C(F)(F)F)ccc2Cl)n1-c1ccc(Cl)cc1 [Compound a46] | 139 | 11.1 | 12.5 | 201 |  |  |  | 
3 | Nc1ncnc2nc(SCC(=O)Nc3ccc(Br)cc3)[nH]c12 [Compound a48] | 153 | 9.5 | 16.1 |  | 75 | < 60 |  | 
4 | CCn1c(-c2nonc2N)nc2c(C#CC(C)(C)O)ncc(OC[C@H]3CCCNC3)c21 [GSK690693] |  |  |  |  |  |  | low nanomolar activity | 
5 | Cc1cccc(Nc2nc3nonc3nc2N/N=C/c2cc3c(cc2Br)OCO3)c1C [a33] | 165 | 109 | 1.5 |  |  |  |  | more potent or comparable cytotoxic activity to that of H-89
6 | Cc1cccc(-c2nc3cc(/N=C/c4c(C)cc(O)c(C)c4O)ccc3o2)c1 [a44] | 102 | 50.6 | 2.0 |  |  |  |  | more potent or comparable cytotoxic activity to that of H-89
